Values quoted from earlier work in patent US7993683B2, “Compositions for the treatment of chronic degenerative inflammatory conditions” (Indena S.p.A., priority 2006, dated 2011).

What was measured:
[1] = test system: pro-inflammatory cytokines
[2] = test system: TNF-induced enhancement of endothelial monocyte adesion; conditions: added to endothelial cell culture together with tumour necrosis factor (TNF)

SMILES: C=C1CC[C@@H]2[C@](C)(CO)[C@H](O)CC[C@@]2(C)[C@@H]1C/C=C1/C(=O)OC[C@H]1O [andrographolide]
- synthesis of pro-inflammatory cytokines [1]: inhibits
- TNF-induced enhancement of endothelial monocyte adesion [2]: concentration depended reduction
